# In PubChem BioAssay AID1745844 (Carcinogenic Potency Database (CPDB), 2022):
# Values joined by “and” are separate entries in the source; they are usually repeats but may differ in a detail not shown here. Equal values may be shown once. Active and inactive are the calls of the source. No rule for the calls is given here.
# System: rodent lifetime carcinogenesis bioassay, tumor incidence TD50
# Assay: carcinogenic potency in animals, long-term in vivo studies, CPDB compilation (AID 1745844)
smiles,measurement,setting,value
CCc1ccccc1,TD50,"mouse, strain B6C3F1, females, inhaled, site: Harderian gland, lesion: adenoma, dosed 103 weeks, study length 104 weeks",9070 mg/kg/day
same,TD50,"mouse, strain B6C3F1, females, inhaled, site: any site (literature study), lesion: several types, types named in the paper, dosed 103 weeks, study length 104 weeks",4070 mg/kg/day
same,TD50,"mouse, strain B6C3F1, females, inhaled, site: liver, lesion: hepatocellular adenoma + hepatoblastoma + hepatocellular carcinoma, dosed 103 weeks, study length 104 weeks",1880 mg/kg/day
same,TD50,"mouse, strain B6C3F1, females, inhaled, site: liver, lesion: hepatocellular adenoma + hepatocellular carcinoma, dosed 103 weeks, study length 104 weeks",1880 mg/kg/day
same,TD50,"mouse, strain B6C3F1, females, inhaled, site: liver, lesion: hepatocellular adenoma, dosed 103 weeks, study length 104 weeks",2450 mg/kg/day
same,TD50,"mouse, strain B6C3F1, females, inhaled, site: lung, lesion: alveolar/bronchiolar adenoma + alveolar/bronchiolar carcinoma, dosed 103 weeks, study length 104 weeks",7950 mg/kg/day
same,TD50,"mouse, strain B6C3F1, males, inhaled, site: any site (literature study), lesion: several types, types named in the paper, dosed 103 weeks, study length 104 weeks",2010 mg/kg/day
same,TD50,"mouse, strain B6C3F1, males, inhaled, site: liver, lesion: hepatocellular adenoma + hepatoblastoma + hepatocellular carcinoma, dosed 103 weeks, study length 104 weeks",9310 mg/kg/day
same,TD50,"mouse, strain B6C3F1, males, inhaled, site: lung, lesion: alveolar/bronchiolar adenoma + alveolar/bronchiolar carcinoma, dosed 103 weeks, study length 104 weeks",1400 mg/kg/day
same,TD50,"mouse, strain B6C3F1, males, inhaled, site: lung, lesion: alveolar/bronchiolar adenoma, dosed 103 weeks, study length 104 weeks",1680 mg/kg/day
same,TD50,"rat, strain Fischer 344, males, inhaled, site: adrenal medulla, lesion: pheochromocytoma benign, bilateral + pheochromocytoma, benign, dosed 104 weeks, study length 104 weeks",125 mg/kg/day
same,TD50,"rat, strain Fischer 344, males, inhaled, site: adrenal medulla, lesion: pheochromocytoma benign, bilateral + pheochromocytoma, malignant + pheochromocytoma, benign, dosed 104 weeks, study length 104 weeks",106 mg/kg/day
same,TD50,"rat, strain Fischer 344, males, inhaled, site: any site (literature study), lesion: several types, types named in the paper, dosed 104 weeks, study length 104 weeks",53 mg/kg/day
same,TD50,"rat, strain Fischer 344, males, inhaled, site: kidney + testis, lesion: tubule adenoma + tubule carcinoma + interstitial-cell adenoma, bilateral + interstitial-cell adenoma, dosed 104 weeks, study length 104 weeks",24.6 mg/kg/day
same,TD50,"rat, strain Fischer 344, males, inhaled, site: kidney, lesion: tubule adenoma + tubule carcinoma, dosed 104 weeks, study length 104 weeks",147 mg/kg/day and 255 mg/kg/day
same,TD50,"rat, strain Fischer 344, males, inhaled, site: kidney, lesion: tubule adenoma, dosed 104 weeks, study length 104 weeks",232 mg/kg/day and 280 mg/kg/day
same,TD50,"rat, strain Fischer 344, males, inhaled, site: testis, lesion: interstitial-cell adenoma, bilateral + interstitial-cell adenoma, dosed 104 weeks, study length 104 weeks",24.8 mg/kg/day
same,TD50,"rat, strain Fischer 344, males, inhaled, site: testis, lesion: interstitial-cell adenoma, bilateral, dosed 104 weeks, study length 104 weeks",23.1 mg/kg/day
same,TD50,"rat, strain Sprague-Dawley, females, by gavage, site: any site (literature study), lesion: malignant tumor, dosed 104 weeks, study length 123 weeks",1610 mg/kg/day
same,TD50,"rat, strain Sprague-Dawley, females, by gavage, site: any site (literature study), lesion: malignant tumor, dosed 104 weeks, study length 141 weeks",1210 mg/kg/day
same,TD50,"rat, strain Sprague-Dawley, females, by gavage, site: any site (literature study), lesion: several types, types named in the paper, dosed 104 weeks, study length 141 weeks",635 mg/kg/day
same,TD50,"rat, strain Sprague-Dawley, females, by gavage, site: head, lesion: carcinoma, dosed 104 weeks, study length 123 weeks",4170 mg/kg/day
same,TD50,"rat, strain Sprague-Dawley, females, by gavage, site: nasal cavity, lesion: carcinoma, dosed 104 weeks, study length 123 weeks",18300 mg/kg/day
same,TD50,"rat, strain Sprague-Dawley, females, by gavage, site: nasal cavity, lesion: esthesioneuroepithelioma, dosed 104 weeks, study length 123 weeks",18300 mg/kg/day
same,TD50,"rat, strain Sprague-Dawley, females, by gavage, site: oral cavity, lesion: carcinoma, dosed 104 weeks, study length 123 weeks",8890 mg/kg/day
same,TD50,"rat, strain Sprague-Dawley, males, by gavage, site: any site (literature study), lesion: malignant tumor, dosed 104 weeks, study length 141 weeks",1980 mg/kg/day
same,TD50,"rat, strain Sprague-Dawley, males, by gavage, site: any site (literature study), lesion: several types, types named in the paper, dosed 104 weeks, study length 141 weeks",1160 mg/kg/day
same,TD50,"rat, strain Sprague-Dawley, males, by gavage, site: ear duct, lesion: carcinoma, dosed 104 weeks, study length 123 weeks",18300 mg/kg/day
same,TD50,"rat, strain Sprague-Dawley, males, by gavage, site: head, lesion: carcinoma, dosed 104 weeks, study length 123 weeks",4350 mg/kg/day
same,TD50,"rat, strain Sprague-Dawley, males, by gavage, site: nasal cavity, lesion: esthesioneuroepithelioma, dosed 104 weeks, study length 123 weeks",5990 mg/kg/day
same,TD50,"rat, strain Sprague-Dawley, males, by gavage, site: oral cavity, lesion: carcinoma, dosed 104 weeks, study length 123 weeks",18300 mg/kg/day
Cc1c(N(C)C)c(=O)n(-c2ccccc2)n1C,carcinogen call,"mouse, strain B6C3F1, females, in drinking water, site: any site (literature study), lesion: one or several types, types not named, dosed 100 weeks, study length 104 weeks",negative (inactive)
same,TD50,"mouse, strain B6C3F1, females, in drinking water, site: liver, lesion: hepatocellular adenoma, dosed 100 weeks, study length 104 weeks",6150 mg/kg/day (inactive)
same,carcinogen call,"mouse, strain B6C3F1, females, in drinking water, site: liver, lesion: hepatocellular carcinoma, dosed 100 weeks, study length 104 weeks",negative (inactive)
same,carcinogen call,"mouse, strain B6C3F1, females, in drinking water, site: lung, lesion: alveolar/bronchiolar adenoma, dosed 100 weeks, study length 104 weeks",negative (inactive)
same,TD50,"mouse, strain B6C3F1, females, in drinking water, site: lung, lesion: alveolar/bronchiolar carcinoma, dosed 100 weeks, study length 104 weeks",6540 mg/kg/day (inactive)
same,TD50,"mouse, strain B6C3F1, males, in drinking water, site: any site (literature study), lesion: one or several types, types not named, dosed 100 weeks, study length 104 weeks",156 mg/kg/day (inactive)
same,TD50,"mouse, strain B6C3F1, males, in drinking water, site: liver, lesion: hepatocellular adenoma, dosed 100 weeks, study length 104 weeks",683 mg/kg/day (inactive)
same,TD50,"mouse, strain B6C3F1, males, in drinking water, site: liver, lesion: hepatocellular carcinoma, dosed 100 weeks, study length 104 weeks",5390 mg/kg/day (inactive)
same,TD50,"mouse, strain B6C3F1, males, in drinking water, site: lung, lesion: alveolar/bronchiolar adenoma, dosed 100 weeks, study length 104 weeks",1480 mg/kg/day (inactive)
same,carcinogen call,"mouse, strain B6C3F1, males, in drinking water, site: lung, lesion: alveolar/bronchiolar carcinoma, dosed 100 weeks, study length 104 weeks",negative (inactive)
